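Five concentrations, 48 hours, 96-well plates. At the TGI there is no net growth.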
Columns and labels:
Assay in all cases: NCI tumour cell line growth inhibition, 48 h
HOP-62 NSCLC = test system: HOP-62 NSCLC
SNB-19 CNS = test system: SNB-19 CNS
CAKI-1 renal = test system: CAKI-1 renal
SR leukemia = test system: SR leukemia
NCI-H23 lung = test system: NCI-H23 lung
MOLT-4 leukemia = test system: MOLT-4 leukemia
SN12C renal = test system: SN12C renal
MDA-MB-435 = test system: MDA-MB-435
UACC-62 melanoma = test system: UACC-62 melanoma
ACHN renal = test system: ACHN renal
HL-60(TB) leukemia = test system: HL-60(TB) leukemia
NCI-H226 lung = test system: NCI-H226 lung
UACC-257 melanoma = test system: UACC-257 melanoma
NCI-H522 lung = test system: NCI-H522 lung
RPMI-8226 leukemia = test system: RPMI-8226 leukemia
PC-3 prostate = test system: PC-3 prostate
T-47D breast = test system: T-47D breast
BT-549 breast = test system: BT-549 breast
RXF 393 renal = test system: RXF 393 renal
LOX IMVI melanoma = test system: LOX IMVI melanoma
KM12 colon = test system: KM12 colon
HS 578T breast = test system: HS 578T breast
K-562 leukemia = test system: K-562 leukemia
DU-145 prostate = test system: DU-145 prostate
TK-10 renal = test system: TK-10 renal
HCT-15 colon = test system: HCT-15 colon
786-0 renal = test system: 786-0 renal
OVCAR-8 ovarian = test system: OVCAR-8 ovarian
UO-31 renal = test system: UO-31 renal
SK-MEL-5 melanoma = test system: SK-MEL-5 melanoma
SF-295 CNS = test system: SF-295 CNS
NCI/ADR-RES ovarian = test system: NCI/ADR-RES ovarian
SF-539 CNS = test system: SF-539 CNS
SK-MEL-2 melanoma = test system: SK-MEL-2 melanoma
HOP-92 NSCLC = test system: HOP-92 NSCLC
A549 NSCLC = test system: A549 NSCLC
EKVX NSCLC = test system: EKVX NSCLC
HT29 colon = test system: HT29 colon
OVCAR-5 ovarian = test system: OVCAR-5 ovarian
OVCAR-4 ovarian = test system: OVCAR-4 ovarian
CCRF-CEM leukemia = test system: CCRF-CEM leukemia
MALME-3M melanoma = test system: MALME-3M melanoma
MDA-N = test system: MDA-N
NCI-H460 lung = test system: NCI-H460 lung
A498 renal = test system: A498 renal
SK-MEL-28 melanoma = test system: SK-MEL-28 melanoma
OVCAR-3 ovarian = test system: OVCAR-3 ovarian
SW-620 colon = test system: SW-620 colon
MCF7 breast = test system: MCF7 breast
SF-268 CNS = test system: SF-268 CNS
SNB-75 CNS = test system: SNB-75 CNS
U251 CNS = test system: U251 CNS
HCT-116 colon = test system: HCT-116 colon
M14 melanoma = test system: M14 melanoma
MDA-MB-231 breast = test system: MDA-MB-231 breast
SK-OV-3 ovarian = test system: SK-OV-3 ovarian
COLO 205 colon = test system: COLO 205 colon
IGROV1 ovarian = test system: IGROV1 ovarian
HCC-2998 colon = test system: HCC-2998 colon

COCn1c(=O)n(C)c(=O)c2c1nc1c(c(=O)n(C)c(=O)n1COC)[n+]2[O-]
TGI (HOP-62 NSCLC): 59.1 µM
TGI (SNB-19 CNS): > 100 µM
TGI (CAKI-1 renal): 64.5 µM
TGI (SR leukemia): 21.3 µM
TGI (NCI-H23 lung): 14 µM
TGI (MOLT-4 leukemia): 29.5 µM
TGI (SN12C renal): 83.7 µM
TGI (MDA-MB-435): 40.2 µM
TGI (UACC-62 melanoma): 33.7 µM
TGI (ACHN renal): 38 µM
TGI (HL-60(TB) leukemia): 39.1 µM
TGI (NCI-H226 lung): 40.8 µM
TGI (UACC-257 melanoma): 54.8 µM
TGI (NCI-H522 lung): 44 µM
TGI (RPMI-8226 leukemia): 37.8 µM
TGI (PC-3 prostate): 34.1 µM
TGI (T-47D breast): 41.8 µM
TGI (BT-549 breast): 87.1 µM
TGI (RXF 393 renal): 10.9 µM
TGI (LOX IMVI melanoma): 27.7 µM
TGI (KM12 colon): > 100 µM
TGI (HS 578T breast): 50.1 µM
TGI (K-562 leukemia): 24 µM
TGI (DU-145 prostate): 94.9 µM
TGI (TK-10 renal): 58.8 µM
TGI (HCT-15 colon): 30.6 µM
TGI (786-0 renal): > 100 µM
TGI (OVCAR-8 ovarian): 45.1 µM
TGI (UO-31 renal): > 100 µM
TGI (SK-MEL-5 melanoma): 19.7 µM
TGI (SF-295 CNS): 55.4 µM
TGI (NCI/ADR-RES ovarian): > 100 µM
TGI (SF-539 CNS): 39.2 µM
TGI (SK-MEL-2 melanoma): 36.8 µM
TGI (HOP-92 NSCLC): 42 µM
TGI (A549 NSCLC): 91.2 µM
TGI (EKVX NSCLC): 44.1 µM
TGI (HT29 colon): > 100 µM
TGI (OVCAR-5 ovarian): 97.2 µM
TGI (OVCAR-4 ovarian): 43.4 µM
TGI (CCRF-CEM leukemia): 27.4 µM
TGI (MALME-3M melanoma): 31.3 µM
TGI (MDA-N): 76.9 µM
TGI (NCI-H460 lung): 24.9 µM
TGI (A498 renal): 82.8 µM
TGI (SK-MEL-28 melanoma): > 100 µM
TGI (OVCAR-3 ovarian): 44.1 µM
TGI (SW-620 colon): > 100 µM
TGI (MCF7 breast): > 100 µM
TGI (SF-268 CNS): 77 µM
TGI (SNB-75 CNS): 22.3 µM
TGI (U251 CNS): 59.6 µM
TGI (HCT-116 colon): 39.5 µM
TGI (M14 melanoma): 43.9 µM
TGI (MDA-MB-231 breast): 44.4 µM
TGI (SK-OV-3 ovarian): 36.1 µM
TGI (COLO 205 colon): 31.8 µM
TGI (IGROV1 ovarian): 48.9 µM
TGI (HCC-2998 colon): 18.1 µM

NNC(=O)CC(=O)Nc1ccccc1Cl
TGI (HOP-62 NSCLC): > 100 µM
TGI (SNB-19 CNS): > 100 µM
TGI (CAKI-1 renal): > 100 µM
TGI (SR leukemia): > 100 µM
TGI (NCI-H23 lung): > 100 µM
TGI (MOLT-4 leukemia): > 100 µM
TGI (SN12C renal): > 100 µM
TGI (MDA-MB-435): > 100 µM
TGI (UACC-62 melanoma): > 100 µM
TGI (ACHN renal): > 100 µM
TGI (HL-60(TB) leukemia): > 100 µM
TGI (UACC-257 melanoma): > 100 µM
TGI (NCI-H522 lung): > 100 µM
TGI (RPMI-8226 leukemia): > 100 µM
TGI (PC-3 prostate): > 100 µM
TGI (T-47D breast): > 100 µM
TGI (BT-549 breast): > 100 µM
TGI (RXF 393 renal): > 100 µM
TGI (LOX IMVI melanoma): > 100 µM
TGI (KM12 colon): > 100 µM
TGI (HS 578T breast): > 100 µM
TGI (K-562 leukemia): > 100 µM
TGI (DU-145 prostate): > 100 µM
TGI (TK-10 renal): > 100 µM
TGI (HCT-15 colon): > 100 µM
TGI (786-0 renal): > 100 µM
TGI (OVCAR-8 ovarian): > 100 µM
TGI (UO-31 renal): > 100 µM
TGI (SK-MEL-5 melanoma): > 100 µM
TGI (SF-295 CNS): > 100 µM
TGI (NCI/ADR-RES ovarian): > 100 µM
TGI (SF-539 CNS): > 100 µM
TGI (SK-MEL-2 melanoma): > 100 µM
TGI (HOP-92 NSCLC): > 100 µM
TGI (A549 NSCLC): > 100 µM
TGI (EKVX NSCLC): > 100 µM
TGI (HT29 colon): > 100 µM
TGI (OVCAR-5 ovarian): > 100 µM
TGI (OVCAR-4 ovarian): > 100 µM
TGI (CCRF-CEM leukemia): > 100 µM
TGI (MALME-3M melanoma): > 100 µM
TGI (MDA-N): > 100 µM
TGI (NCI-H460 lung): > 100 µM
TGI (A498 renal): > 100 µM
TGI (SK-MEL-28 melanoma): > 100 µM
TGI (OVCAR-3 ovarian): > 100 µM
TGI (SW-620 colon): > 100 µM
TGI (MCF7 breast): > 100 µM
TGI (SF-268 CNS): > 100 µM
TGI (SNB-75 CNS): > 100 µM
TGI (U251 CNS): > 100 µM
TGI (HCT-116 colon): > 100 µM
TGI (MDA-MB-231 breast): > 100 µM
TGI (SK-OV-3 ovarian): > 100 µM
TGI (COLO 205 colon): > 100 µM
TGI (IGROV1 ovarian): > 100 µM

— PubChem BioAssay (NCI)
